Molecules are shown by their SMILES. A value given as a limit tells only on which side of the number the result lay.

The results in this text go back to patent US20250282735A1, “BICYCLE COMPOUNDS AS TEAD INHIBITOR” (DONG-A ST CO., LTD., priority 2022, published 2025).

One assay concerns MSTO-211H cells. As to the kind of experiment: Proliferation assay (EdU incorporation), MSTO-211H. It is filed as cell-based. The following applies: Homo sapiens, 72 h, YAP-driven MSTO-211H (LATS1 mutation), 3 days with inhibitor, 1% serum. The procedure: The anti-proliferative activity of TEAD inhibitors was evaluated in cells with different properties for YAP; “YAP-driven” cells (MSTO-211H, NCI-H226) in which YAP located in the nucleus and “YAP-independent” cells (OCM1, NCI-H28) where YAP located in the cytoplasm. […] TEAD inhibitors were evaluated with cell lines with these YAP profiling and mutational status.
The next day, replace it with cell starvation medium containing 1% serum. After one day of growth in the starvation medium, the cells were incubated for 3 days with TEAD inhibitors in a concentration range of 0.01-10 μM. After 3 days, EdU (Invitrogen) at a concentration of 10 µM was added to the starvation medium and incubated for an additional 24 hours. After removing the starvation medium remaining in each well, wash the wells with PBS. Cells were fixed with 4% paraformaldehyde (Electron microscopy sciences) at room temperature for 20 minutes. After removing the fix solution remaining in each well, wash the wells with PBS and the cells were permeabilized for 40 minutes by adding 0.5% triton X-100 (Sigma Aldrich). After removing the permeabilization solution remaining in each well, the EdU labeling was performed according to the instructions of the manufacturer's instructions (Click-iT™ Cell Reaction Buffer Kit, Invitrogen). After the Click reaction for EdU labeling, nuclei were stained with […] (Thermo Scientific) for total cell count analysis. After plate preparation for detection, Image acquisition was performed using the ImageXpress Micro XLS. The acquired images were analyzed using MetaXpress software (molecular devices). Through this experimental method, it was possible to confirm the inhibitory activity of TEAD inhibitors by detection EdU incorporated into proliferating cells.
IC50 for cell proliferation inhibition activity are shown in the Table 2 below and designated within the following ranges. [+++: ≤0.1 μM, ++: >0.1 μM to ≤1 μM, +: >1 μM to ≤10μ, −: >10 μM]

Assay [1] relates to TEAD reporter-containing human breast cancer cell line MCF7. As to the kind of experiment: TEAD reporter (luciferase) assay. It is filed as cell-based. The following applies: TEAD reporter MCF7 cells, 24 hours treatment, 1% serum media. The procedure:
The TEAD reporter-containing human breast cancer cell line MCF7 (60618, BPS bioscience) was cultured according to the manufacturer's instructions. Cells were plated in 96-well white plates at a density of 30,000 per well and incubated overnight. The following day cells were treated with small molecules in 1% serum media (0.1% v/v DMSO). After 24 hours of the treatment, cell viability was evaluated by using CCK-8 reagent (CK04, Dojindo) and measuring absorbance at 450 nm. Then, the assay for luciferase activity was performed using Dual-Glo® Luciferase Assay System (Promega, E2940) following the manufacturer's instructions. Luminescence intensity was measured and the potency of the compounds was determined by IC50 value generated from non-linear regression analysis of the dose-response curves.
IC50 for luciferase activity are shown in the Table 1 below and designated within the following ranges. [+++: ≤0.1 μM, ++: >0.1 μM to ≤1 μM, +: >1 μM to ≤10 μM, −: >10 μM]

Broadly, the IC50 is the midpoint of a concentration-inhibition curve. Low values mean inhibition by little substance, high ones a need for much substance. In turn, `C=CC(=O)Nc1cnc2c(c1)c(-c1ccc(C(F)(F)F)cc1)cn2CC` [Example 95, N-(1-Ethyl-3-(4-(trifluoromethyl)phenyl)-1H-pyrrolo[2,3-b]pyridin-5-yl)acrylamide] yielded an IC50 in the assay on MSTO-211H cells of 0.1 to 1 µM.

`C=CC(=O)Nc1cnc2c(c1)c(/C=C/c1ccc(OC)c(F)c1)cn2C` [Compound 42, (E)-N-(3-(3-Fluoro-4-methoxystyryl)-1-methyl-1H-pyrrolo[2,3-b]pyridin-5-yl)acrylamide] gave an IC50 with MSTO-211H cells of 0.1 to 1 µM.

In turn, `C=CC(=O)Nc1cnc2c(c1)c(/C=C/c1ccc(F)c(F)c1)cn2C` [Compound 44, (E)-N-(3-(3,4-Difluorostyryl)-1-methyl-1H-pyrrolo[2,3-b]pyridin-5-yl)acrylamide] registered an IC50 in the assay on MSTO-211H cells of at most 0.1 µM.

As for `C=CC(=O)N(Cc1ccccc1)c1cnc2c(c1)c(/C=C/c1ccc(Cl)cc1)cn2C` [Example 67, (E)-N-Benzyl-N-(3-(4-chlorostyryl)-1-methyl-1H-pyrrolo[2,3-b]pyridin-5-yl)acrylamide], the IC50 in the assay with MSTO-211H cells fell in the range of 1 to 10 µM.

Consider `C=CC(=O)Nc1cnc2c(c1)c(/C=C/c1ccc(Cl)cc1)nn2CC` [Compound 33, (E)-N-(3-(4-Chlorostyryl)-1-ethyl-1H-pyrazolo[3,4-b]pyridin-5-yl)acrylamide], for which the IC50 in the assay on MSTO-211H cells is at most 0.1 µM; in assay [1], 1 to 10 µM.

`Cn1cc(/C=C/c2ccc(Cl)cc2)c2cc(NC(=O)CCl)cnc21` [Example 70, (E)-2-Chloro-N-(3-(4-chlorostyryl)-1-methyl-1H-pyrrolo[2,3-b]pyridin-5-yl) acetamide]: the IC50 (with MSTO-211H cells; in assay [1]) was 1 to 10 µM in each case.

As to `C=CC(=O)Nc1cc(F)c2c(c1)c(/C=C/c1ccc(Cl)cc1)cn2C` [Compound 37, (E)-N-(3-(4-Chlorostyryl)-7-fluoro-1-methyl-1H-indol-5-yl)acrylamide], the IC50 was at most 0.1 µM in the assay on MSTO-211H cells and 0.1 to 1 µM in assay [1].

Consider `C=CC(=O)Nc1cnc2c(c1)c(-c1ccc3ccccc3c1)cn2C` [Example 107, N-(1-Methyl-3-(naphthalen-2-yl)-1H-pyrrolo[2,3-b]pyridin-5-yl)acrylamide], for which the IC50 (with MSTO-211H cells; in assay [1]) was at most 0.1 µM in each case.

For the compound `C=CC(=O)Nc1ccc2c(c1)c(C1=CCC(F)(F)CC1)cn2C` [Compound 23, N-(3-(4,4-Difluorocyclohex-1-en-1-yl)-1-methyl-1H-indol-5-yl)acrylamide], the IC50 in the assay on MSTO-211H cells was 0.1 to 1 µM; in assay [1], at most 0.1 µM.

In turn, `C=CC(=O)Nc1cnc2c(c1)c(-c1ccc(CCC)cc1)cn2C` [Example 100, N-(1-Methyl-3-(4-propylphenyl)-1H-pyrrolo[2,3-b]pyridin-5-yl)acrylamide] gave an IC50 with MSTO-211H cells of at most 0.1 µM.

On to `C=CC(=O)Nc1cnc2c(c1)c(/C=C/c1cccc(Cl)c1)cn2C` [Compound 41, (E)-N-(3-(3-Chlorostyryl)-1-methyl-1H-pyrrolo[2,3-b]pyridin-5-yl)acrylamide], for which the IC50 in the assay on MSTO-211H cells is at most 0.1 µM.

As for `C=CC(=O)Nc1cnc2c(c1)c(/C=C/C1CCC(F)(F)CC1)nn2CC` [Compound 32, (E)-N-(3-(2-(4,4-Difluorocyclohexyl)vinyl)-1-ethyl-1H-pyrazolo[3,4-b]pyridin-5-yl)acrylamide], the IC50 in the assay on MSTO-211H cells is 0.1 to 1 µM; in assay [1] it was at most 0.1 µM.

Regarding `C=CC(=O)Nc1ccc2c(c1)c(C1CCC(C)(C)CC1)cn2C` [Example 122, N-(3-(4,4-dimethylcyclohexyl)-1-methyl-1H-indol-5-yl)acrylamide], the IC50 with MSTO-211H cells was 0.1 to 1 µM; in assay [1], at most 0.1 µM.

In the assay with MSTO-211H cells, `C=CC(=O)Nc1cnc2c(c1)c(/C=C/C1CCCCC1)cn2C` [Compound 49, (E)-N-(3-(2-Cyclohexylvinyl)-1-methyl-1H-pyrrolo[2,3-b]pyridin-5-yl)acrylamide] gave an IC50 of at most 0.1 µM.

In the assay on MSTO-211H cells, `C=CC(=O)Nc1cnc2c(c1)c(/C=C/c1ccc(C(F)(F)F)cc1)cn2C` [Compound 46, (E)-N-(1-Methyl-3-(4-(trifluoromethyl)styryl)-1H-pyrrolo[2,3-b]pyridin-5-yl)acrylamide] showed an IC50 of 0.1 to 1 µM.

`C=CC(=O)N(Cc1ccncc1)c1cnc2c(c1)c(/C=C/c1ccc(Cl)cc1)cn2C` [Example 68, (E)-N-(3-(4-Chlorostyryl)-1-methyl-1H-pyrrolo[2,3-b]pyridin-5-yl)-N-(pyridin-4-ylmethyl)acrylamide] returned an IC50 with MSTO-211H cells of 1 to 10 µM.

Consider `C=CC(=O)Nc1cnc2c(c1)c(/C=C/c1ccc(C(C)C)cc1)cn2C` [Compound 43, (E)-N-(3-(4-Isopropylstyryl)-1-methyl-1H-pyrrolo[2,3-b]pyridin-5-yl)acrylamide], for which the IC50 in the assay on MSTO-211H cells lay in the range of 0.1 to 1 µM.

In the case of `C=CC(=O)Nc1ccc2c(/C=C/C3CCC(F)(F)CC3)cn(C)c2c1` [Compound 13, (E)-N-(3-(2-(4,4-Difluorocyclohexyl)vinyl)-1-methyl-1H-indol-6-yl)acrylamide], the IC50 with MSTO-211H cells was 1 to 10 µM.

Regarding `C=CC(=O)Nc1cnc2ccn(CC3CCCCC3)c2c1` [Example 77, N-(1-(Cyclohexylmethyl)-1H-pyrrolo[3,2-b]pyridin-6-yl)acrylamide], the IC50 in the assay with MSTO-211H cells fell in the range of 0.1 to 1 µM.

For `C=CC(=O)Nc1cnc2c(c1)c(-c1ccc(C(F)(F)F)cc1)cn2C(C)C` [Example 96, N-(1-isopropyl-3-(4-(trifluoromethyl)phenyl)-1H-pyrrolo[2,3-b]pyridin-5-yl)acrylamide], the IC50 in the assay with MSTO-211H cells lay within 0.1 to 1 µM.

Regarding `C=CC(=O)Nc1cnc2c(c1)c(-c1ccc(C)cc1)cn2C` [Example 104, N-(1-Methyl-3-(p-tolyl)-1H-pyrrolo[2,3-b]pyridin-5-yl)acrylamide], the IC50 with MSTO-211H cells lay in the range of 0.1 to 1 µM.

Regarding `C=CC(=O)Nc1ccc2c(c1)c(/C=C/c1ccc(Cl)cc1)c(C)n2C` [Compound 14, (E)-N-(3-(4-Chlorostyryl)-1,2-dimethyl-1H-indol-5-yl)acrylamide], in the assay on MSTO-211H cells, the IC50 lay in the range of 0.1 to 1 µM.

`C=CC(=O)Nc1cnc2c(c1)c(-c1ccc(F)cc1)cn2C` [Example 103, N-(3-(4-Fluorophenyl)-1-methyl-1H-pyrrolo[2,3-b]pyridin-5-yl)acrylamide] came in with an IC50 in the assay with MSTO-211H cells of 0.1 to 1 µM.

Compound `C=CC(=O)Nc1cnc2c(c1)c(/C=C/c1cccc(F)c1)cn2C` [Compound 40, (E)-N-(3-(3-Fluorostyryl)-1-methyl-1H-pyrrolo[2,3-b]pyridin-5-yl)acrylamide] displayed an IC50 with MSTO-211H cells of 0.1 to 1 µM.

The compound `C=CC(=O)Nc1cnc2c(c1)c(-c1cccc(N3CCCCC3)c1)cn2C` [Example 88, N-(1-Methyl-3-(3-(piperidin-1-yl)phenyl)-1H-pyrrolo[2,3-b]pyridin-5-yl)acrylamide] gave a half-maximal inhibitory concentration (IC50) with MSTO-211H cells of 0.1 to 1 µM.

Turning to `C=CC(=O)Nc1cnc2c(c1)c(-c1cccc(OCc3cccc(Cl)c3)c1)cn2C` [Compound 52, N-(3-(3-((3-Chlorobenzyl)oxy)phenyl)-1-methyl-1H-pyrrolo[2,3-b]pyridin-5-yl)acrylamide], the IC50 with MSTO-211H cells is 0.1 to 1 µM.

With `C=CC(=O)Nc1cnc2c(c1)c(-c1ccc(C(F)(F)F)cc1)cn2C(F)F` [Example 129, N-(1-(Difluoromethyl)-3-(4-(trifluoromethyl)phenyl)-1H-pyrrolo[2,3-b]pyridin-5-yl)acrylamide], in the assay on MSTO-211H cells, the IC50 lay in the range of 0.1 to 1 µM.

For the compound `C=CC(=O)N(C)c1cnc2c(c1)c(/C=C/C1CCC(F)(F)CC1)cn2C` [Example 66, (E)-N-(3-(2-(4,4-Difluorocyclohexyl)vinyl)-1-methyl-1H-pyrrolo[2,3-b]pyridin-5-yl)-N-methylacrylamide], the concentration for half-maximal inhibition (IC50) in the assay on MSTO-211H cells fell in the range of 0.1 to 1 µM.
